Structures are written as SMILES. Values after ≈ are worked out from the molar mass of the structure shown.

For one data set, the system named is Staphylococcus aureus. Description: Agar diffusion test. Conditions: 37° C., 16 hours. In kind it is cell-based. The protocol:
Agar plates containing 2 ml of Staphylococcus aureus inoculum in 200 ml of agar solution were prepared. gabusectin was applied, in a 10 mM solution, to 6 mm-diameter paper disks, which were then laid on the agar plate. The inoculated Staphylococcus plates were incubated at 37° C. for 16 hours. Inhibition halos having the following diameters (mm) were then observed: Agar plates containing 2 ml of Staphylococcus aureus inoculum in 200 ml of agar solution were prepared. gabusectin methyl ester is applied, in a 10 mM solution, to 6 mm-diameter paper disks, which are then laid on the agar plate. The inoculated Staphylococcus plates were incubated at 37° C. for 16 hours. Inhibition halos having the following diameters (mm) were then observed.

A short description of data set [1]: Stability in solution (physicochemical properties). Conditions: for Stability in strongly acidic and strongly alkaline solution: strongly acidic and strongly alkali(ne) solution. The text has this:
(§1) Stable in neutral and mildly acidic medium but unstable in strongly acidic and strongly alkali solution. […] Stable in neutral and mildly acidic medium but unstable in strongly acidic and strongly alkaline solution.

The nature of data set [2]: Solubility (appearance/physicochemical properties).
Text: as §1

The nature of the next data set: Tolerability. The note with it: at and above its effective concentration. The text has this: Gabusectin is well-tolerated at and above its effective concentration.
The subject of the next data set is E. faecium (M78L). Briefly: In-vitro antibacterial activity, serial dilution test. The format is cell-based. Conditions: Enterococcus faecium, read-out: MIC values. The text has this: (§2) Table 1 summarizes the minimum inhibitory concentrations (MICs) of gabusectin, by way of example.
In a further data set the test system is S. aureus (SG511). Described as above. The format is cell-based. Conditions: Staphylococcus aureus.
Text: as §2

The subject of the next data set is S. pyogenes (A561). The description is as above. In kind it is cell-based. Conditions: Streptococcus pyogenes.
Text: as §2

Another data set deals with S. aureus (Exp54146). The description is as above. The format is cell-based. Conditions: Staphylococcus aureus.
Text: as §2

[3] abbreviates: 10 μL of 10 mM solution on 6 mm paper disk.
Where [4] appears, read: 20 μL of 10 mM solution on 6 mm paper disk.
The mark [5] stands for this setting: 40 μL of 10 mM solution on 6 mm paper disk.

On to `C/C=C/[C@H]1C(C)=C[C@@]2(C)C[C@H](C)CC[C@H]2[C@]1(C)/C(O)=C1\C(=O)C(CCC(=O)OC)N(C)C1=O` (stereo partly shown) [gabusectin methyl ester], for which the Inhibition halo size in the data set with Staphylococcus aureus (setting [3]) is reported as 0 mm. In the data set on Staphylococcus aureus (setting [4]), this compound showed an Inhibition halo size of 7 mm. Moreover, in the data set with Staphylococcus aureus (setting [5]), the Inhibition halo size turned out to be 8 mm. Also, in data set [1], the “Stability in neutral and mildly acidic medium” value is “Stable”; the “Stability in strongly acidic and strongly alkaline solution” value was “unstable”. In addition, in data set [2], the “Solubility in medium-polar and polar organic solvents” value is “soluble”; the Solubility in water entry is “not particularly soluble”.
The MIC is the smallest concentration in the dilution series that meets the test's criterion for growth inhibition. As for `C/C=C/C1C(C)=CC2(C)CC(C)CCC2C1(C)/C(O)=C1\C(=O)C(CCC(=O)O)N(C)C1=O` (stereo not shown) [gabusectin], in the data set “Tolerability”, the Tolerability result is listed as “well-tolerated”. Besides, the Inhibition halo size with Staphylococcus aureus (setting [3]) turned out to be 8 mm; with Staphylococcus aureus (setting [4]), 14 mm; with Staphylococcus aureus (setting [5]) it was 17 mm. In data set [1], the “Stability in neutral and mildly acidic medium” value was “Stable”. Besides, the “Stability in strongly acidic and strongly alkaline solution” value in data set [1] is “unstable”. In addition, the “Solubility in medium-polar and polar organic solvents” value in data set [2] is recorded as “soluble”. For the same compound, the Solubility in water entry in data set [2] is given as “not particularly soluble”. In addition, the MIC came out at 40 µg/mL (≈ 90.2 µM) in the data set on E. faecium (M78L), 5 µg/mL (≈ 11.3 µM) with S. aureus (SG511), 20 µg/mL (≈ 45.1 µM) in the data set with S. pyogenes (A561) and 20 µg/mL (≈ 45.1 µM) against S. aureus (Exp54146).

The record behind these values is patent publication US6962943B2, “Gabusectin derivatives, processes for preparing them and their use” (Aventis Pharma Deutschland GmbH, priority 2002, dated 2005).
